Key:
Hepa1-6 cells [1] = experiment: Clonogenicity (colony formation) in Hepa1-6 liver cancer cells; assay type: cell-based, murine; details: Mus musculus, 168 h; Hepa1-6 (m), 7 days treatment
Experimental: (§1) Liver cancer cell lines Hep3B (human) and Hepa1-6 (murine) were maintained in either Eagle's Minimum Essential Medium (Corning) for Hep3B cells or High Glucose DMEM (Gibco) for Hepa1-6 cells, supplemented with 10% FBS (Gibco) and 1% Antibiotic-Antimycotic (Thermo-Fisher Scientific). Each cell line was seeded at 1000 cells/well in 12-well plates. The next day, the media were replaced, and cells were treated with 0 (vehicle control, 0.1% DMSO), 1, 5, 10, 30, 50, or 100 μM Compound I-32, I-61, I-1, or III-1 (final concentration of DMSO 0.1%) for 7 days. On day 9, the media were removed, and cells were fixed with 10% formalin (500 μl) for 10 minutes at room temperature, washed with 1×PBS and stained with crystal violet. After 10 minutes the excess stain was removed by rinsing three times with tap water. The plates were allowed to dry overnight, then the number of colonies (>50 cells) in each well were counted using light microscopy as described previously by Villiani L. A., et al.

Hep3B cells [2] = experiment: Clonogenicity (colony formation) in Hep3B liver cancer cells; assay type: cell-based; details: Homo sapiens, 168 h, 7 days treatment
Experimental: as §1

Hepa1-6 cells [3] = experiment: Cancer cell proliferation (PrestoBlue) in Hepa1-6 cells; assay type: cell-based, murine; details: Hepa1-6 (m), 72 hours
Experimental: (§2) Human liver cancer cells Hep3B and murine liver cancer cells Hepa1-6, respectively, were seeded at a cell density of 3000 cells/well in 96-well plates using either Eagle's Minimum Essential Medium (Corning) for Hep3B or Dulbecco's Modified Eagle's Medium (DMEM) High Glucose (Gibco) for Hepa1-6 cells, supplemented with 10% fetal bovine serum (FBS, Gibco) and 1% Antibiotic-Antimycotic solution (Thermo-Fisher Scientific). The next day, the cells were treated with 0 (vehicle control), 0.1, 0.5, 1, 5, 10, 30, 50 or 100 μM Compound I-32, I-61, I-1, or III-1 (final concentration of DMSO 0.1%) and were allowed to grow for 72 hours at 37° C. On day 5, 10 μl of PrestoBlue™ Cell Viability Reagent (Invitrogen) was added to each well and the plate was incubated at 37° C. for an additional 1-2 hours.

Hep3B cells [4] = experiment: Cancer cell proliferation (PrestoBlue) in Hep3B cells; assay type: cell-based, human; details: Hep3B (h), 72 hours
Experimental: as §2

Hep3B cells [5] = experiment: Combination study with sorafenib or lenvatinib, proliferation in Hep3B cells; details: for IC50: read-out: IC50 for inhibition of proliferation; for Synergistic or additive effect on antiproliferative activity (CompuSyn analysis): in the presence of sorafenib or lenvatinib, FIGS. 8A-8D
Experimental: (§3) Hep3B (supplied by ATCC) or Hepa1-6 (supplied by ATCC) cells were seeded in 96-well plates at a density of 500 cells/well with complete media. […] Then, cells were incubated in an incubator for 72 h. On day 5, 10 μl of presto blue (Invitrogen, cat # A13261) cell viability reagent was added in each 96-well plate and incubated at 37° C. for 1-2 h. After incubation, fluorescence was measured with an excitation/emission wavelength of 560/590 nm. […] Proliferation IC50 values were calculated using a non-linear regression model in Graph pad Prism 8.

Hepa1-6 cells [6] = experiment: Combination study with sorafenib or lenvatinib, proliferation in Hepa1-6 cells
Experimental: as §3

primary hepatocytes (m) = experiment: De novo lipogenesis (DNL) in mouse primary hepatocytes; assay type: cell-based; details: Hepatocyte

SMILES | IC50 (Hepa1-6 cells [1]) | IC50 (Hep3B cells [2]) | Cancer Cell Proliferation % reduction vs control at 100 μM, Mean (Standard Deviation) (Hepa1-6 cells [3]) | Cancer Cell Proliferation % reduction vs control at 100 μM, Mean (Standard Deviation) (Hep3B cells [4]) | IC50 (Hep3B cells [5]; Hep3B cells, in the absence of a compound of the invention, separate experiment (data not shown)) | IC50 (Hepa1-6 cells [6]; read-out: IC50 for inhibition of proliferation, Hepa1-6 cells, in the absence of a compound of the invention, separate experiment (data not shown)) | IC50 (Hep3B cells [5]; Homo sapiens, Hep3B) | IC50 (Hepa1-6 cells [6]; Mus musculus, Hepa1-6, read-out: IC50 for inhibition of proliferation) | IC50 (primary hepatocytes (m)) | Synergistic or additive effect on antiproliferative activity (CompuSyn analysis) (Hep3B cells [5]; Hep3B cells)
CC(C)(CCCc1ccc(CCCC(C)(C)C(=O)O)cc1)C(=O)O [III-1, 1,4-Bis(4-carboxy-4-methylpentyl)benzene] | 61 µM | 55.6 µM | 15.7 (6.7) % | 29.7 (6.2) % | – | – | – | – | – | –
CNC(=O)c1cc(Oc2ccc(NC(=O)Nc3ccc(Cl)c(C(F)(F)F)c3)cc2)ccn1 [sorafenib, reference compound] | – | – | – | – | 3 µM | 5 µM | – | – | – | –
COc1cc2nccc(Oc3ccc(NC(=O)NC4CC4)c(Cl)c3)c2cc1C(N)=O [lenvatinib, reference compound] | – | – | – | – | – | – | 0.5 µM | 30 µM | – | –
CC(C)(CCCCc1cccc(CCCCC(C)(C)C(=O)O)c1)C(=O)O [Compound I-32, 6-[3-(5-Carboxy-5-methylhexyl)-phenyl]-2,2-dimethylhexanoic acid] | 52.3 µM | 41.7 µM | 18.6 (3.1) % | 30.8 (2.6) % | – | – | – | – | 8.3 µM | synergistic inhibition
CC(C)(CCCc1ccccc1CCCC(C)(C)C(=O)O)C(=O)O [Compound I-61, 5,5′-(1,2-Phenylene)bis(2,2-dimethylpentanoic acid)] | 73.4 µM | 57.3 µM | 21.8 (8.9) % | 35.7(5.8) % | – | – | – | – | – | synergistic inhibition
CC(C)(CCCCc1ccc(CCCCC(C)(C)C(=O)O)cc1)C(=O)O [Compound I-1, 6,6′-(1,4-phenylene)bis(2,2-dimethylhexanoic acid)] | 55.6 µM | 53.9 µM | 25.9 (5.7) % | 41.8 (8.4) % | – | – | – | – | 12.1 µM | –

Reference: patent US20230007838A1, “FUNCTIONALIZED LONG-CHAIN HYDROCARBON MONO- AND DI-CARBOXYLIC ACIDS AND THEIR USE FOR THE PREVENTION OR TREATMENT OF DISEASE” (ESPERVITA THERAPEUTICS, INC., priority 2019, published 2023)
